Assay results as given in patent publication US20080207569A1, “Methods for the treatment of liver diseases” (priority 2007, published 2008).

Assays:
Fas-induced liver damage = test: Fas driven model of liver damage (activating antibody Jo-2), plasma ALT activity; assay type: in vivo, male C57B1/6 mice; settings: 10 mg/kg PO; six hours after Jo-2 IV; average of 2 studies, p<0.05 in each
Method: (§1) In vivo efficacy of RO-113-0830 was assessed using male C57B1/6 mice (Simonsen Labs) in two well-established models of liver damage. The mice were allowed to acclimate for at least three days.
In a Fas driven model of liver damage, an activating antibody to Fas (Jo-2) was administered IV. Six hours later, animals were anesthetized with Nembutal (50 mg/kg IP), and blood was taken by cardiac puncture. Plasma ALT activity was determined using a kit from Sigma-Aldrich.

[1] = test system: bile duct ligation (BDL) induced liver injury and hepatic fibrosis; test: Bile duct ligation model of liver fibrosis; assay type: in vivo, C57/BL6 wild-type mice; settings: 10 mg/kg once a day by gavage
Method: The bile duct ligation model is a well characterized model of liver fibrosis. Briefly, C57/BL6 wild-type mice 6 to 8 weeks of age were subjected to bile duct ligation (BDL) for 14 days. Sham-operated wild type mice were used as controls. Either RO 113-0830 or CMC (carboxymethylcellulose) were administered by gavage in a dose of 10 mg/kg body weight once a day. Hepatocyte apoptosis was quantified by the TUNEL assay and immunofluorescence for activated caspases 3/7. Liver injury was assessed by histopathology, and quantification of bile infarcts. Hepatic fibrosis was assessed by Sirius red staining and quantitative morphometry. Real-time polymerase chain reaction (PCR) was used to measure mRNA transcripts for collagen 1 alpha (I) and alpha-smooth muscle actin.

[2] = test system: Huh7 human hepatoma cell line (the 21-5 cell line); settings: read-out: IC50 for cytotoxicity (concentration decreasing cell viability by 50%); 72 hr; host cell rRNA levels by TaqMan RT-PCR
From the text: Cells were processed 72 hr later when the cells were still sub-confluent.

[3] = test system: TNF-α/D-Galactosamine induced liver injury; test: TNF-α model of liver injury, 24 hour survival; assay type: in vivo, male C57B1/6 mice; settings: TNF-α/D-Gln IP; average from 3 studies; p=0.03 vs control mice (27±7.3%)
Method: (§2) TNF-α is a cytokine that is implicated in inducing liver injury in a variety of acute and chronic liver diseases such as chronic HCV and acute liver failure. An exemplary in vivo model to test pharmacological agents against TNF-α induced injury is the TNF-α/D-Gal model of liver injury in mice. In this model, mice are treated with TNF-α/D-Gal and compound is administered to evaluate its ability to protect against liver damage. The compound is administered either before, at the time of or after the treatment with TNF-α/D-Gal, and followed for a period of approximately 6 hours. Allowing this model to persist past 6 hours is a variation used to determine the improved survival afforded by compound treatment.
as §1
To determine a benefit on survival, TNF-α model, D-Galactosamine (D-Gln) (800 mg/kg) and TNF-α (20 or 40 μg/kg) were injected IP, and mice were allowed to survive for 24 hours post insult. All morbid mice were euthanized with 125 mg/kg of Nembutal IP. The average 24 hour survival from 3 studies was 27±7.3% and. 55±7.6% (p=0.03) in the TNFα/D-Gln control mice and RO-113-0830-treated mice, respectively.

[4] = test system: TNF-α/D-Galactosamine induced liver injury; test: TNF-α model of liver injury (TNFα/D-Gln), plasma ALT activity; assay type: in vivo, male C57B1/6 mice
Method: as §2, with “Allowing this model to persist past 6 hours is a variation used to determine the improved survival afforded by compound treatment.” left out
Multiple outcome measures are used for this evaluation. […] The extent of liver damage can be graded by examining liver samples prepared and evaluated microscopically by trained observers. […] In certain embodiment, compounds described herein protect against TNF-α/D-Gal induced liver injury as determined by these parameters. In certain embodiment, compounds described herein protect against Fas induced liver injury as determined by these parameters. […]
In vivo efficacy of RO-113-0830 was assessed using male C57B1/6 mice (Simonsen Labs) in two well-established models of liver damage. […]
In the TNF-α model of liver injury, D-Galactosamine (D-Gln) (800 mg/kg) and TNFα (20 or 40 μg/kg) were injected IP. […] Plasma ALT activity was determined using a kit from Sigma-Aldrich.

[5] = test system: full-length HCV replicon in Huh7 human hepatoma cell line (21-5); test: HCV RNA replicon antiviral evaluation assay; assay type: cell-based, hepatitis C virus; settings: 72 hr; HCV RNA replicon levels by TaqMan RT-PCR; read-out: EC50 (concentration inhibition virus replication by 50%)
Method: The assay was conducted as described by Pietschmann, T. et al., supra.
Human interferon alpha-2b was included in each run as a positive control compound. Subconfluent cultures of the ET line were plated out into 96-well plates that were dedicated for the analysis of cell numbers (cytotoxicity) or antiviral activity and the next day drugs were added to the appropriate wells. Cells were processed 72 hr later when the cells were still sub-confluent. HCV RNA replicon levels and the toxic concentration of drug that reduces cell numbers, as indicated by host cell ribosomal RNA (rRNA) levels, were assessed by TaqMan RT-PCR. The EC50 (concentration inhibition virus replication by 50%), IC50 (concentration decreasing cell viability by 50%) and SI50 (selective index: IC50/EC50) values were calculated.

O=C(NO)C1(CS(=O)(=O)c2ccc(Oc3ccc(Cl)cc3)cc2)CCOCC1 [RO-113-0830]
reduction of Fas-induced elevation in plasma ALT activity (Fas-induced liver damage): 50% | reduction of Sirius red staining of hepatic collagen ([1]; 14 days of BDL): 3 fold | reduction in the number of bile infarcts vs vehicle ([1]; 14 days of BDL, histologic examination): > 70% | decrease in TUNEL-positive hepatocytes vs vehicle ([1]; 14 days of BDL, p<0.01): 3 fold | decrease in caspase 3/7-positive hepatocytes vs vehicle ([1]; 14 days of BDL, p<0.01): 5 fold | reduction of hepatic mRNA for alpha-smooth muscle actin vs vehicle ([1]; 14 days of BDL, real-time PCR): > 60% | reduction of hepatic mRNA for collagen I vs vehicle ([1]; 14 days of BDL, real-time PCR): > 60% | overall animal survival following 14 days of BDL ([1]; p<0.05): significantly enhanced | IC50 [2]: ~25 µM | 24 hour survival [3]: 55±7.6% | plasma ALT activity, effect in words ([4]; 0.001-30 mg/kg PO 30 minutes before insult, six hours): dose-dependently decreased plasma ALT activity | ED50 for decrease of plasma ALT activity ([4]; PO by gavage 30 minutes before TNFα/D-Gln insult, ALT six hours later, average from 4 studies): 0.26 ± 0.08 mg/kg | EC50 [5]: 0.07 µM
